Results as given in PubChem BioAssay AID179 (DTP/NCI, 2004).
Activity calls are given as the source filed them.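 Rule for the calls: active = compounds giving half or more protection of infected cells from virus-caused growth loss, again on retest; inactive = the rest.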 Where a SMILES comes first, the peptide text is derived from it. Bridges are numbered along the chain shown (N, C = ends). Roman numbers before positions name the chains, in order.

Test system: CEM cells HIV-1 protection, formazan growth assay
Test: NCI AIDS Antiviral Assay
Settings: for IC50: measured here: growth of uninfected CEM cells
In short: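 Protection of CEM cells against HIV-1 measured as cell growth via soluble formazan read-out, with five concentrations tested on both infected and uninfected cells; failure to protect may reflect toxicity.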

SMILES	EC50 [µM]	IC50 [µM]	outcome
COC(=O)c1cc(C(=CCCC(C)[C@H]2CCC3C4CC[C@@H]5CCCC[C@]5(C)C4CC[C@@]32C)c2cc(Cl)c(OC)c(C(=O)OC)c2)cc(Cl)c1OC (some centres undefined)	> 200	39.8	
Clc1ccc(Cl)c(-c2nc3ccccc3[nH]2)c1	> 97.7	> 97.7	
CCCCCn1c(=O)c2c(=O)[nH][nH]c2c2ccccc21	> 200	> 200	
CCOC(=O)C1C(=O)CC2c3nc4ccccc4cc3CN2C1=O (centres undefined)	> 10	> 10	
O=C(NNC(=O)c1ccccc1O)c1cccc(Br)c1	> 200	6.46	
Cn1nc2c(c(Cl)c1=O)Nc1ccccc1O2	> 200	> 200	
NC(=O)CCCCC1CCSS1 (centres undefined)	> 457	> 457	
O=C(/C=C/C(=O)c1cccs1)c1cccs1	> 20	1.1	
N#C/C(=C\c1ccccc1F)C(=O)c1ccccc1	> 75.9	> 75.9	
COC(=O)NN(C(=O)OC)c1c(-c2ccccc2)nc(SC)n1N	> 200	> 200	
C=CCN1CC2CON(C(=O)C(OC)(c3ccccc3)C(F)(F)F)C2C1C(C)C (centres undefined)	> 200	37.2	
CCSc1n/c(=C\c2ccco2)c2nncn12	> 100	> 100	
CC1(C)C2CC3OC3(C)C1C2 (centres undefined)	> 200	> 200	
COC(=O)NC(S(=O)(=O)O)S(=O)(=O)O			inactive
COc1cc(C[N+]23CC[N+](Cc4cc(OC)cc(OC)c4)(CC2)C3)cc(OC)c1	> 525	214	
O=C1CCCC2=C1CC1=C(CCCC1=O)N2c1cccc2ccccc12	49	174	
C=CCOc1ccccc1N=N/C(C#N)=N\Nc1ccccc1OCC=C	> 200	110	
Cc1c(S(=O)(=O)c2ccccc2)c(N)n(Cc2ccccc2)c1C	> 200	74.1	
CC(=O)NC1(C)C2CCC3(C)N=C(C)C1CC3C2 (centres undefined)			inactive
c1ccc2c(c1)CCN(NCCN1CCCC1)C2			inactive
Cc1ccc2c3c4c(ccc13)C(C)(C)OC4=C(C(C)C)C2=O	> 200	15.8	
Cc1c(Cc2cc(C(C)(C)C)c(O)c(C(C)(C)C)c2)c(C)c(Cc2cc(C(C)(C)C)c(O)c(C(C)(C)C)c2)c(C)c1Cc1cc(C(C)(C)C)c(O)c(C(C)(C)C)c1			inactive
O=C(CC1(O)C(=O)Nc2ccc([N+](=O)[O-])cc21)c1ccc2ccccc2c1 (centres undefined)	> 100	> 100	

SMILES	EC50 [µM]	IC50 [µM]	outcome
COc1cc(C(C)O)c[n+](CCC2CNc3ccccc32)c1 (centres undefined)	> 219	195	
C=C1c2c(C)coc2C(=O)c2c(O)cc(OC)c(C)c21			inactive
COc1ccc(C)cc1C(=C=C=C=C(c1cc(C)ccc1OC)c1ccccc1OCc1ccccc1)c1ccccc1OCc1ccccc1	> 44.7	36.3	
CCOC(=O)C1=c2[nH]c3cccc4cccc(c43)n2C(=O)CC1c1ccccc1 (centres undefined)	> 100	75.9	
CCOC(=O)C1=NN(c2ccc(Cl)cc2)C2=CC(C)=NN(C)C(=S)N21	> 200	> 200	
COc1ccc(C(O)c2nccn2C)c(OC)c1 (centres undefined)	> 200	> 200	
CC(NC(=O)C(N)CSSCC(N)C(=O)NC(C)C(=O)O)C(=O)O (stereo not drawn) (I: H-Cys-Ala-OH / II: H-Cys-Ala-OH; disulfide I:1-II:1; configuration not given here)	> 178	> 178	
COc1cccc2cc(C)c(C(=O)c3ccccc3)nc12	> 64.6	> 64.6	
O=c1ccn([C@@H]2C[C@H](CO)CS(=O)C2)c(=O)[nH]1 (some centres undefined)	> 977	> 977	
COC(=N)/C(C#N)=N/C1OCC(O)C(O)C1O (centres undefined)			inactive
O=C(CC(=O)c1cccc2ccccc12)C(=O)Nc1ccc(Cl)cc1			inactive
COc1cc(OC)c2ssc3c(OC)cc(OC)c4ssc1c2-c43	> 13.2	> 13.2	
N#Cc1c(-c2ccccc2)cc(-c2ccccc2)n(C2OCC(O)C(O)C2O)c1=S (centres undefined)	> 200	21.4	
O=C1/C(=C/c2cccc(Br)c2)Cc2ccccc21	> 200	17	
COc1cc(C[C@H]2C(=O)OCC2Cc2ccc(OC)c(OC)c2)ccc1O (some centres undefined)	> 200	5.5	
COC1(c2ccc(Cl)cc2)SC=C(C)n2c1noc2=O (centres undefined)	> 200	> 200	
COc1ccc(/C=C/C(=O)c2cc(OC)cc(OC)c2)cc1	> 200	0.955	
OCC1CC(F)C(n2cnc3c(NO)ncnc32)O1 (centres undefined)	> 151	> 151	
COC(=O)/C=C1\C=CC=CC12C(C(=O)OC)c1ccccc1C(C(=O)OC)C2C(=O)OC (centres undefined)	> 200	> 200	
Nc1cc(Nc2ccc(Cl)[nH]c2=S)nc(N)n1	> 186	5.75	
COc1cc(N(C)C)c(OC)cc1C=C1C=CC=C1	> 977	0.407	
Cc1cccc(NC(=S)Nc2ccccc2Cl)n1	141	> 200	
CC(=O)O[C@H]1CC2CCCC2C2C(=O)OC(=O)C21 (some centres undefined)			active
